# Reference: patent US10597388B2, “Pyridazinone herbicides” (FMC CORPORATION, priority 2014, dated 2020)
# Columns and labels:
# Test in all cases: Test E greenhouse herbicide test, pre- and postemergence
# Assay type in all cases: in vivo
# Settings in all cases: Preemergence
# [1] = test system: goosegrass (Eleusine indica)
# Excerpt: (§1) Seeds of plant species selected from corn (Zea mays), soybean (Glycine max), velvetleaf (Abutilon theophrasti), lambsquarters (Chenopodium album), wild poinsettia (Euphorbia heterophylla), pigweed, palmer (palmer pigweed, Amaranthus palmeri), waterhemp (common waterhemp, Amaranthus rudis), surinam grass (Brachiaria decumbens), crabgrass, large (large crabgrass, Digitaria sanguinalis), crabgrass, Brazilian (Brazilian crabgrass, Digitaria horizontalis), panicum, fall (fall panicum, Panicum dichotomiflorum), foxtail, giant (giant foxtail, Setaria faberii), foxtail, green (green foxtail, Setaria viridis), goosegrass (Eleusine indica), johnsongrass (Sorghum halepense), ragweed (common ragweed, Ambrosia elatior), barnyardgrass (Echinochloa crus-galli), sandbur (southem sandbur, Cenchrus echinatus), arrowleaf sida (Sida rhombifolia), Italian ryegrass (Lolium multiflorum), dayflower (Virginia (VA) dayflower, Commelina virginica), field bindweed (Convolvulus arvensis), momingglory (Ipomoea coccinea), nightshade (eastern black nightshade, Solanum ptycanthum), kochia (Kochia scoparia), nutsedge, yellow (yellow nutsedge, Cyperus esculentus), horseweed (Conyza canadensis), and beggarticks (hairy beggarticks, Bidens pilosa), were planted into a silt loam soil and treated preemergence with test chemicals formulated in a non-phytotoxic solvent mixture which included a surfactant.
# (§2) At the same time, plants from these crop and weed species and also waterhemp_RES1, (ALS & Triazine resistant common waterhemp, Amaranthus rudis), and waterhemp_RES2, (ALS & HPPD resistant common waterhemp, Amaranthus rudis) were planted in pots containing Redi-Earth® planting medium (Scotts Company, 14111 Scottslawn Road, Marysville, Ohio 43041) comprising spaghnum peat moss, vermiculite, wetting agent and starter nutrients were treated with postemergence applications of test chemicals formulated in the same manner. Plants ranged in height from 2 to 18 cm for postemergence treatments (1- to 4-leaf stage). Treated plants and controls were maintained in a greenhouse for 14 to 21 d, after which time all species were compared to controls and visually evaluated. Plant response ratings, summarized in Table E, are based on a scale of 0 to 100 where 0 is no effect and 100 is complete control. A dash (-) response means no test result.
# [2] = test system: dayflower (Virginia (VA) dayflower, Commelina virginica)
# Excerpt: as §1, §2
# [3] = test system: johnsongrass (Sorghum halepense)
# Excerpt: as §1, §2
# [4] = test system: crabgrass, large (large crabgrass, Digitaria sanguinalis)
# Excerpt: as §1, §2
# [5] = test system: crabgrass, Brazilian (Brazilian crabgrass, Digitaria horizontalis)
# Excerpt: as §1, §2
# [6] = test system: velvetleaf (Abutilon theophrasti)
# Excerpt: as §1, §2
# [7] = test system: foxtail, giant (giant foxtail, Setaria faberii)
# Excerpt: as §1, §2
# [8] = test system: arrowleaf sida (Sida rhombifolia)
# Excerpt: as §1, §2
# [9] = test system: surinam grass (Brachiaria decumbens)
# Excerpt: as §1, §2
# [10] = test system: field bindweed (Convolvulus arvensis)
# Excerpt: as §1, §2
# [11] = test system: pigweed, palmer (palmer pigweed, Amaranthus palmeri)
# Excerpt: as §1, §2
# [12] = test system: waterhemp (common waterhemp, Amaranthus rudis)
# Excerpt: as §1, §2
# [13] = test system: corn (Zea mays)
# Excerpt: as §1, §2
# [14] = test system: momingglory (Ipomoea coccinea)
# Excerpt: as §1, §2
# [15] = test system: horseweed (Conyza canadensis)
# Excerpt: as §1, §2
# [16] = test system: ragweed (common ragweed, Ambrosia elatior)
# Excerpt: as §1, §2
# [17] = 62 g ai/ha, scale 0 to 100 (0 no effect, 100 complete control)
# [18] = 31 g ai/ha, scale 0 to 100, 0 no effect, 100 complete control
# [19] = 125 g ai/ha, visual, scale 0 no effect to 100 complete control
# [20] = 250 g ai/ha, visual, scale 0 no effect to 100 complete control
# [21] = 125 g ai/ha, scale 0 to 100 (0 no effect, 100 complete control)
compound,measurement,setting,value
Cc1ccc2ccccc2c1-c1c(O)c(C)nn(C)c1=O [Compound 59],"Plant response rating, Goosegrass",[1]; [17],95
same,"Plant response rating, Goosegrass",[1]; [18],90
same,"Plant response rating, Goosegrass",[1]; [19],98
same,"Plant response rating, Goosegrass",[1]; [20],98
same,"Plant response rating, Dayflower, VA",[2]; [17],40
same,"Plant response rating, Dayflower, VA",[2]; [18],10
same,"Plant response rating, Dayflower, VA",[2]; [19],80
same,"Plant response rating, Dayflower, VA",[2]; [20],80
same,"Plant response rating, Johnsongrass",[3]; [17],25
same,"Plant response rating, Johnsongrass",[3]; [18],0
same,"Plant response rating, Johnsongrass",[3]; [19],80
same,"Plant response rating, Johnsongrass",[3]; [20],80
same,"Plant response rating, Crabgrass, Large",[4]; [17],50
same,"Plant response rating, Crabgrass, Large",[4]; [18],0
same,"Plant response rating, Crabgrass, Large",[4]; [19],80
same,"Plant response rating, Crabgrass, Large",[4]; [20],95
same,"Plant response rating, Crabgrass, Brazil",[5]; [17],90
same,"Plant response rating, Crabgrass, Brazil",[5]; [18],60
same,"Plant response rating, Crabgrass, Brazil",[5]; [19],100
same,"Plant response rating, Crabgrass, Brazil",[5]; [20],100
same,"Plant response rating, Velvetleaf",[6]; [17],95
same,"Plant response rating, Velvetleaf",[6]; [21],95
same,"Plant response rating, Velvetleaf",[6]; [18],90
same,"Plant response rating, Velvetleaf",[6]; [20],98
same,"Plant response rating, Foxtail, Giant",[7]; [17],95
same,"Plant response rating, Foxtail, Giant",[7]; [18],85
same,"Plant response rating, Foxtail, Giant",[7]; [19],98
same,"Plant response rating, Foxtail, Giant",[7]; [20],100
same,"Plant response rating, Arrowleaf Sida",[8]; [17],95
same,"Plant response rating, Arrowleaf Sida",[8]; [18],80
same,"Plant response rating, Arrowleaf Sida",[8]; [19],98
same,"Plant response rating, Arrowleaf Sida",[8]; [20],98
same,"Plant response rating, Surinam Grass",[9]; [17],90
same,"Plant response rating, Surinam Grass",[9]; [21],100
same,"Plant response rating, Surinam Grass",[9]; [18],85
same,"Plant response rating, Surinam Grass",[9]; [20],100
same,"Plant response rating, Field Bindweed",[10]; [17],75
same,"Plant response rating, Field Bindweed",[10]; [18],65
same,"Plant response rating, Field Bindweed",[10]; [19],95
same,"Plant response rating, Field Bindweed",[10]; [20],95
same,"Plant response rating, Pigweed, Palmer",[11]; [17],98
same,"Plant response rating, Pigweed, Palmer",[11]; [21],100
same,"Plant response rating, Pigweed, Palmer",[11]; [18],95
same,"Plant response rating, Pigweed, Palmer",[11]; [20],100
same,"Plant response rating, Waterhemp",[12]; [17],100
same,"Plant response rating, Waterhemp",[12]; [21],100
same,"Plant response rating, Waterhemp",[12]; [18],75
same,"Plant response rating, Waterhemp",[12]; [20],100
same,"Plant response rating, Corn",[13]; [17],0
same,"Plant response rating, Corn",[13]; [18],0
same,"Plant response rating, Corn",[13]; [19],0
same,"Plant response rating, Corn",[13]; [20],20
same,"Plant response rating, Morningglory",[14]; [17],95
same,"Plant response rating, Morningglory",[14]; [21],98
same,"Plant response rating, Morningglory",[14]; [18],75
same,"Plant response rating, Morningglory",[14]; [20],100
same,"Plant response rating, Horseweed",[15]; [17],100
same,"Plant response rating, Horseweed",[15]; [18],100
same,"Plant response rating, Horseweed",[15]; [19],100
same,"Plant response rating, Horseweed",[15]; [20],100
same,"Plant response rating, Ragweed",[16]; [17],95
same,"Plant response rating, Ragweed",[16]; [21],100
same,"Plant response rating, Ragweed",[16]; [18],100
same,"Plant response rating, Ragweed",[16]; [20],100
